Values after ≈ are worked out from the molar mass of the structure shown.
Experiments:
[1] = Oral bioavailability in healthy human at 400 mg/kg, po; format: ADME, organism-based; details: in vivo
[2] = Renal excretion in healthy human at 400 mg/kg, po administered as single dose; format: ADME, organism-based, Kidney; parameters: dose 400 mg/kg, route oral; details: urine, read-out: Activity
[3] = clinical; details: human, in vivo, po, 400 mg/kg
Description: Tmax in patients with pulmonary tuberculosis at 400 mg/kg, po

[4] = clinical; details: human, plasma, po, 400 mg/kg
Description: Plasma protein binding in healthy human at 400 mg/kg, po

[5] = tested on: Mycobacterium tuberculosis; experiment: microbe, parasite or virus in culture
Description: Antimicrobial activity against Mycobacterium tuberculosis

[6] = AUC in healthy human at 600 mg/kg, po; format: ADME, organism-based; parameters: dose 600 mg/kg, route oral; details: plasma
[7] = Cmax in healthy human at 600 mg/kg, po; format: ADME, organism-based; parameters: dose 600 mg/kg, route oral; details: in vivo
[8] = Tmax in healthy human at 600 mg/kg, po; format: ADME, organism-based; parameters: dose 600 mg/kg, route oral; details: in vivo
[9] = Half life in healthy human at 600 mg/kg, po; format: ADME, organism-based; parameters: dose 600 mg/kg, route oral; details: in vivo
[10] = Plasma protein binding in healthy human at 600 mg/kg, po; format: ADME, organism-based; parameters: dose 600 mg/kg, route oral; details: read-out: PPB (converted)
[11] = Ratio of AUC to MIC against Mycobacterium avium; format: functional
[12] = tested on: Mycobacterium tuberculosis; experiment: microbe, parasite or virus in culture; remark: listed apart in the source
Description: Antimicrobial activity against rifampicin-sensitive Mycobacterium tuberculosis

[13] = AUC in healthy human at 400 mg/kg, po; format: ADME, organism-based; parameters: dose 400 mg/kg, route oral; details: plasma
[14] = Drug excretion in urine of healthy human at 800 mg/kg; format: ADME, organism-based; parameters: dose 800 mg/kg; details: read-out: Activity
[15] = Drug excretion in feces of healthy human at 800 mg/kg; format: ADME, organism-based; parameters: dose 800 mg/kg; details: faeces, read-out: Activity
[16] = tested on: Mycobacterium tuberculosis; format: functional
[17] = tested on: Mycobacterium tuberculosis; experiment: Antimicrobial activity against compound-susceptible Mycobacterium tuberculosis; format: functional
[18] = Plasma protein binding in human at 0.1 to 2.5 ug/ml by ultracentrifugation; format: ADME, cell-free; details: read-out: PPB (converted)
[19] = Plasma protein binding in Beagle dog at 0.1 to 2.5 ug/ml by ultracentrifugation; format: ADME, cell-free, Canis lupus familiaris; details: read-out: PPB (converted)
[20] = Plasma protein binding in Fischer rat at 0.1 to 2.5 ug/ml by ultracentrifugation; format: ADME, cell-free; details: read-out: PPB (converted)
[21] = Plasma protein binding in CD2F1 mouse at 0.1 to 2.5 ug/ml by ultracentrifugation; format: ADME, cell-free; details: read-out: PPB (converted)
[22] = Oral bioavailability in healthy human at 10 mg/kg, po; format: ADME, organism-based; details: in vivo
[23] = AUC in healthy human at 10 mg/kg, po; format: ADME, organism-based; parameters: dose 10 mg/kg, route oral; details: plasma
[24] = Tmax in healthy human at 10 mg/kg, po; format: ADME, organism-based; parameters: dose 10 mg/kg, route oral; details: in vivo
[25] = Plasma protein binding in healthy human at 10 mg/kg, po; format: ADME, organism-based; parameters: dose 10 mg/kg, route oral; details: read-out: PPB (converted)
[26] = tested on: Mycobacterium avium; experiment: Antimicrobial activity against Mycobacterium avium; format: functional
[27] = clinical; details: human, in vivo, po, 10 mg/kg
[28] = Half life in human; format: ADME, organism-based; details: in vivo
[29] = Tmax in human; format: ADME, organism-based; details: in vivo
[30] = Half life in healthy human; format: ADME, organism-based; details: in vivo
[31] = Tmax in healthy human; format: ADME, organism-based; details: in vivo
[32] = Drug excretion in feces of healthy human; format: ADME; details: faeces, read-out: Activity
[33] = Drug excretion in urine of healthy human; format: ADME, tissue-based; details: read-out: Activity

COc1c(N2CCNC(C)C2)c(F)cc2c(=O)c(C(=O)O)cn(C3CC3)c12 (stereo unspecified) [GATIFLOXACIN]
bioavailability [1]: 96% | dose excreted [2]: 77% | Tmax [3]: 1.5 h | fraction unbound [4]: 0.8

Cc1c(CN2CCN(c3ccc(C(F)(F)F)cc3)CC2)cc(-c2ccccc2)n1NC(=O)c1ccncc1
MIC90 [5]: 0.25 µg/mL (≈ 0.481 µM)

CO[C@H]1/C=C/O[C@@]2(C)Oc3c(C)c(O)c4c(O)c(c(/C=N/N5CCN(C6CCCC6)CC5)c(O)c4c3C2=O)NC(=O)/C(C)=C\C=C\[C@H](C)[C@H](O)[C@@H](C)[C@@H](O)[C@@H](C)[C@H](OC(C)=O)[C@@H]1C [RIFAPENTINE]
AUC [6]: 319000 ng·h/mL | Cmax [7]: 10000 ng/mL | Tmax [8]: 4.8 h | half-life [9]: 13 h | fraction unbound [10]: 0.03 | RatioAUC/MIC [11]: 76.6 | MIC [12]: 0.02 µg/mL (≈ 0.0228 µM)

COc1c(N2C[C@@H]3CCCN[C@@H]3C2)c(F)cc2c(=O)c(C(=O)O)cn(C3CC3)c12 [MOXIFLOXACIN]
bioavailability [1]: 86% | AUC [13]: 26900 ng·h/mL | dose excreted [14]: 20% | dose excreted [15]: 25% | Activity [16]: 37% | Tmax [3]: 1 h | MIC [12]: 0.25 µg/mL (≈ 0.623 µM)

C[C@]1(COc2ccc(N3CCC(Oc4ccc(OC(F)(F)F)cc4)CC3)cc2)Cn2cc([N+](=O)[O-])nc2O1
MIC [17]: 0.006 µg/mL (≈ 0.0112 µM)

CC[C@@H](CO)NCCN[C@@H](CC)CO [ETHAMBUTOL]
Activity [16]: 26%

CC(C)=CCC/C(C)=C/CNCCNC1C2CC3CC(C2)CC1C3 (stereo unspecified) [SQ109]
MIC [17]: 0.16 µg/mL (≈ 0.484 µM) | fraction unbound [18]: 0.94 | fraction unbound [19]: 0.94 | fraction unbound [20]: 0.94 | fraction unbound [21]: 0.94

CO[C@H]1/C=C/O[C@@]2(C)Oc3c(C)c(O)c4c(O)c(c(/C=N/N5CCN(C)CC5)c(O)c4c3C2=O)NC(=O)/C(C)=C\C=C\[C@H](C)[C@H](O)[C@@H](C)[C@@H](O)[C@@H](C)[C@H](OC(C)=O)[C@@H]1C [RIFAMPIN]
bioavailability [22]: 68% | AUC [23]: 21500 ng·h/mL | Tmax [24]: 1.5 h | fraction unbound [25]: 0.15 | MIC [26]: 0.15 µg/mL (≈ 0.182 µM) | Cmax [27]: 8000 ng/mL | MIC [5]: 0.15 µg/mL (≈ 0.182 µM)

COc1nc2ccc(Br)cc2cc1[C@@H](c1ccccc1)[C@@](O)(CCN(C)C)c1cccc2ccccc12 [BEDAQUILINE]
half-life [28]: 24 h | Tmax [29]: 5 h | MIC [17]: 0.03 µg/mL (≈ 0.054 µM)

O=[N+]([O-])c1cn2c(n1)OC[C@@H](OCc1ccc(OC(F)(F)F)cc1)C2 [PRETOMANID]
MIC [17]: 0.015 µg/mL (≈ 0.0418 µM) | half-life [30]: 18 h | Tmax [31]: 4 h | dose excreted [32]: 26% | dose excreted [33]: 65%
